# Laboratory results taken from the NIST ThermoML archive (doi:10.1021/je600573w).
# Numbers after ± are expanded uncertainties.
# Key:
# [1] = 101.33 kPa, Liquid, Vibrating tube method
# [2] = molar heat capacity at constant pressure; settings: 101.33 kPa, Liquid, Small sample (50 mg) DSC
smiles,measurement,setting,value
"Clc1ccccc1Cl [1,2-dichlorobenzene]",mass density,[1]; 288.15 K,1311.76 ± 0.64 kg/m3
same,mass density,[1]; 298.15 K,1300.61 ± 0.63 kg/m3
same,mass density,[1]; 308.15 K,1289.45 ± 0.62 kg/m3
same,mass density,[1]; 318.15 K,1278.29 ± 0.6 kg/m3
same,mass density,[1]; 328.15 K,1267.09 ± 0.59 kg/m3
same,mass density,[1]; 338.15 K,1255.87 ± 0.58 kg/m3
same,molar heat capacity at constant pressure,[2]; 283.15 K,167.68 ± 2.6 J/K/mol
same,molar heat capacity at constant pressure,[2]; 285.15 K,168.06 ± 2.6 J/K/mol
same,molar heat capacity at constant pressure,[2]; 287.15 K,168.44 ± 2.6 J/K/mol
same,molar heat capacity at constant pressure,[2]; 289.15 K,168.83 ± 2.6 J/K/mol
same,molar heat capacity at constant pressure,[2]; 291.15 K,169.23 ± 2.6 J/K/mol
same,molar heat capacity at constant pressure,[2]; 293.15 K,169.64 ± 2.6 J/K/mol
same,molar heat capacity at constant pressure,[2]; 295.15 K,170.05 ± 2.6 J/K/mol
same,molar heat capacity at constant pressure,[2]; 297.15 K,170.47 ± 2.6 J/K/mol
same,molar heat capacity at constant pressure,[2]; 299.15 K,170.89 ± 2.6 J/K/mol
same,molar heat capacity at constant pressure,[2]; 301.15 K,171.32 ± 2.6 J/K/mol
same,molar heat capacity at constant pressure,[2]; 303.15 K,171.76 ± 2.7 J/K/mol
same,molar heat capacity at constant pressure,[2]; 305.15 K,172.2 ± 2.7 J/K/mol
same,molar heat capacity at constant pressure,[2]; 307.15 K,172.64 ± 2.7 J/K/mol
same,molar heat capacity at constant pressure,[2]; 309.15 K,173.09 ± 2.7 J/K/mol
same,molar heat capacity at constant pressure,[2]; 311.15 K,173.54 ± 2.7 J/K/mol
same,molar heat capacity at constant pressure,[2]; 313.15 K,174 ± 2.7 J/K/mol
same,molar heat capacity at constant pressure,[2]; 315.15 K,174.46 ± 2.7 J/K/mol
same,molar heat capacity at constant pressure,[2]; 317.15 K,174.92 ± 2.7 J/K/mol
same,molar heat capacity at constant pressure,[2]; 319.15 K,175.38 ± 2.7 J/K/mol
same,molar heat capacity at constant pressure,[2]; 321.15 K,175.85 ± 2.7 J/K/mol
same,molar heat capacity at constant pressure,[2]; 323.15 K,176.32 ± 2.7 J/K/mol
same,molar heat capacity at constant pressure,[2]; 325.15 K,176.79 ± 2.7 J/K/mol
same,molar heat capacity at constant pressure,[2]; 327.15 K,177.26 ± 2.8 J/K/mol
same,molar heat capacity at constant pressure,[2]; 329.15 K,177.73 ± 2.8 J/K/mol
same,molar heat capacity at constant pressure,[2]; 331.15 K,178.2 ± 2.8 J/K/mol
same,molar heat capacity at constant pressure,[2]; 333.15 K,178.67 ± 2.8 J/K/mol
same,molar heat capacity at constant pressure,[2]; 335.15 K,179.14 ± 2.8 J/K/mol
same,molar heat capacity at constant pressure,[2]; 337.15 K,179.61 ± 2.8 J/K/mol
same,molar heat capacity at constant pressure,[2]; 339.15 K,180.07 ± 2.8 J/K/mol
same,molar heat capacity at constant pressure,[2]; 341.15 K,180.54 ± 2.8 J/K/mol
same,molar heat capacity at constant pressure,[2]; 343.15 K,181 ± 2.8 J/K/mol
same,molar heat capacity at constant pressure,[2]; 345.15 K,181.47 ± 2.8 J/K/mol
same,molar heat capacity at constant pressure,[2]; 347.15 K,181.92 ± 2.8 J/K/mol
same,molar heat capacity at constant pressure,[2]; 349.15 K,182.38 ± 2.8 J/K/mol
same,molar heat capacity at constant pressure,[2]; 351.15 K,182.83 ± 2.8 J/K/mol
same,molar heat capacity at constant pressure,[2]; 353.15 K,183.28 ± 2.8 J/K/mol
Clc1ccccc1Br [1-bromo-2-chlorobenzene],mass density,[1]; 288.15 K,1659.67 ± 1.1 kg/m3
same,mass density,[1]; 298.15 K,1646.32 ± 1.1 kg/m3
same,mass density,[1]; 308.15 K,1633.01 ± 1.1 kg/m3
same,mass density,[1]; 318.15 K,1619.69 ± 1 kg/m3
same,mass density,[1]; 328.15 K,1606.36 ± 1 kg/m3
same,mass density,[1]; 338.15 K,1593.03 ± 1 kg/m3
same,molar heat capacity at constant pressure,[2]; 283.15 K,172.25 ± 2.7 J/K/mol
same,molar heat capacity at constant pressure,[2]; 285.15 K,172.59 ± 2.7 J/K/mol
same,molar heat capacity at constant pressure,[2]; 287.15 K,172.94 ± 2.7 J/K/mol
same,molar heat capacity at constant pressure,[2]; 289.15 K,173.29 ± 2.7 J/K/mol
same,molar heat capacity at constant pressure,[2]; 291.15 K,173.65 ± 2.7 J/K/mol
same,molar heat capacity at constant pressure,[2]; 293.15 K,174.02 ± 2.7 J/K/mol
same,molar heat capacity at constant pressure,[2]; 295.15 K,174.39 ± 2.7 J/K/mol
same,molar heat capacity at constant pressure,[2]; 297.15 K,174.78 ± 2.7 J/K/mol
same,molar heat capacity at constant pressure,[2]; 299.15 K,175.17 ± 2.7 J/K/mol
same,molar heat capacity at constant pressure,[2]; 301.15 K,175.56 ± 2.7 J/K/mol
same,molar heat capacity at constant pressure,[2]; 303.15 K,175.96 ± 2.7 J/K/mol
same,molar heat capacity at constant pressure,[2]; 305.15 K,176.36 ± 2.7 J/K/mol
same,molar heat capacity at constant pressure,[2]; 307.15 K,176.77 ± 2.7 J/K/mol
same,molar heat capacity at constant pressure,[2]; 309.15 K,177.19 ± 2.8 J/K/mol
same,molar heat capacity at constant pressure,[2]; 311.15 K,177.61 ± 2.8 J/K/mol
same,molar heat capacity at constant pressure,[2]; 313.15 K,178.03 ± 2.8 J/K/mol
same,molar heat capacity at constant pressure,[2]; 315.15 K,178.45 ± 2.8 J/K/mol
same,molar heat capacity at constant pressure,[2]; 317.15 K,178.88 ± 2.8 J/K/mol
same,molar heat capacity at constant pressure,[2]; 319.15 K,179.31 ± 2.8 J/K/mol
same,molar heat capacity at constant pressure,[2]; 321.15 K,179.74 ± 2.8 J/K/mol
same,molar heat capacity at constant pressure,[2]; 323.15 K,180.17 ± 2.8 J/K/mol
same,molar heat capacity at constant pressure,[2]; 325.15 K,180.6 ± 2.8 J/K/mol
same,molar heat capacity at constant pressure,[2]; 327.15 K,181.03 ± 2.8 J/K/mol
same,molar heat capacity at constant pressure,[2]; 329.15 K,181.47 ± 2.8 J/K/mol
same,molar heat capacity at constant pressure,[2]; 331.15 K,181.9 ± 2.8 J/K/mol
same,molar heat capacity at constant pressure,[2]; 333.15 K,182.33 ± 2.8 J/K/mol
same,molar heat capacity at constant pressure,[2]; 335.15 K,182.77 ± 2.8 J/K/mol
same,molar heat capacity at constant pressure,[2]; 337.15 K,183.2 ± 2.8 J/K/mol
same,molar heat capacity at constant pressure,[2]; 339.15 K,183.62 ± 2.8 J/K/mol
same,molar heat capacity at constant pressure,[2]; 341.15 K,184.05 ± 2.9 J/K/mol
same,molar heat capacity at constant pressure,[2]; 343.15 K,184.47 ± 2.9 J/K/mol
same,molar heat capacity at constant pressure,[2]; 345.15 K,184.89 ± 2.9 J/K/mol
same,molar heat capacity at constant pressure,[2]; 347.15 K,185.31 ± 2.9 J/K/mol
same,molar heat capacity at constant pressure,[2]; 349.15 K,185.72 ± 2.9 J/K/mol
same,molar heat capacity at constant pressure,[2]; 351.15 K,186.13 ± 2.9 J/K/mol
same,molar heat capacity at constant pressure,[2]; 353.15 K,186.53 ± 2.9 J/K/mol
